Series [1] addresses Receptor tyrosine-protein kinase erbB-2 (Homo sapiens, UniProt P04626). In words: Inhibition of human C-terminal His6-tagged ERBB2 (676 to end residues) expressed in baculovirus infected sf21 cells using poly(Glu, Tyr) 4:1 as substrate.
Series [2] concerns the target T1, CYP2C8 (Homo sapiens, UniProt P10632).
T1 sequence (P10632 whole entry): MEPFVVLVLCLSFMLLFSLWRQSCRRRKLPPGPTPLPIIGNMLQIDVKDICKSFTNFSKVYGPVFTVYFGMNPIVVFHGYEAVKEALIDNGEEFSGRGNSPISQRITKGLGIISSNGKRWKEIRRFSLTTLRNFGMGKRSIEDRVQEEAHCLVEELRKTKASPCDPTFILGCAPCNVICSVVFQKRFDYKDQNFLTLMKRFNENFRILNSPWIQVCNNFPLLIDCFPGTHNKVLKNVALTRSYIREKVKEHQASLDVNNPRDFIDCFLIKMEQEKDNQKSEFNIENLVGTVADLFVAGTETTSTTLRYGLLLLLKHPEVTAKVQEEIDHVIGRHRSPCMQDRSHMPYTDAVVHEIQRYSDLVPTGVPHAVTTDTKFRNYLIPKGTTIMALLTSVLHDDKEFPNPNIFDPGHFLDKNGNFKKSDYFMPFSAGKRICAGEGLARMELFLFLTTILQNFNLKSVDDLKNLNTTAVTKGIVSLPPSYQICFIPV
In words: Inhibition of CYP2C8 in human liver microsomes assessed as residual activity at 10 uM using amiodiaquine as substrate preincubated for 5 mins followed by NADPH addition and measured after 15 mins by LC-MS/MS analysis relative to control. It counts as ADME. The conditions noted are these: probe amiodiaquine, read-out: Activity. (Microsomes from liver hold many membrane-bound enzymes, among them those of drug oxidation.)

Series [3] concerns NCI-H1975. In words: Antiproliferative activity against human NCI-H1975 cells harboring EGFR T790M/L858R double mutant after 72 hrs by EZ-Cytox assay. It counts as functional, cell-based. The conditions noted are these: NCI-H1975, 72 h.
Series [4] deals with CYP3A4 (Homo sapiens, UniProt P08684). In words: Inhibition of CYP3A4 in human liver microsomes assessed as residual activity at 10 uM using midazolam as substrate preincubated for 5 mins followed by NADPH addition and measured after 15 mins by LC-MS/MS analysis relative to control. It counts as ADME. The following applies: probe midazolam, read-out: Activity.
CYP3A4, sequence (P08684 whole entry): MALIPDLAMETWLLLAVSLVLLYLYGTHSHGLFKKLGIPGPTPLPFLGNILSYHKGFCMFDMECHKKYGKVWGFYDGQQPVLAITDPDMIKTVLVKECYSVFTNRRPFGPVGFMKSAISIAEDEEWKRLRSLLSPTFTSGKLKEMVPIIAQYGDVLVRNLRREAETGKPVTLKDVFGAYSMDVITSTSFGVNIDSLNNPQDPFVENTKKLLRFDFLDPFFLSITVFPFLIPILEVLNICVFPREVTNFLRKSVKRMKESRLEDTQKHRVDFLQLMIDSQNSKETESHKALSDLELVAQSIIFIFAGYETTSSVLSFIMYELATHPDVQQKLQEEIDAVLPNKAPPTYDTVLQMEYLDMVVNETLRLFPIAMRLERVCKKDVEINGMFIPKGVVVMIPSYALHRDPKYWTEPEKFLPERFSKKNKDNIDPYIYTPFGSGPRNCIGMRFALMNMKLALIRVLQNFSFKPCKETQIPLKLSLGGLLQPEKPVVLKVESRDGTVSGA
Series [5] concerns PC-9. In words: Potency index, ratio of gefitinib IC50 to compound IC50 for antiproliferative activity against human PC9 cells harboring EGFR exon-19 del mutant. It counts as functional.
In series [6] the test system is Epidermal growth factor receptor (Homo sapiens), P00533 [L858R,T790M]. In words: Potency index, ratio of afatinib IC50 to compound IC50 for inhibition of human N-terminal GST-tagged EGFR T790M/L858R double mutant (696 to end residues) expressed in baculovirus infected sf21 cells.
Series [7] in a line: Selectivity index, ratio of IC50 for human C-terminal His6-tagged ERBB2 (676 to end residues) expressed in baculovirus infected sf21 cells to IC50 for human N-terminal GST-tagged EGFR T790M/L858R double mutant (696 to end residues) expressed in baculovirus infected sf21 cells.
A short description of series [8]: Selectivity index, ratio of IC50 for human N-terminal GST-tagged EGFR kinase domain (696 to end residues) expressed in baculovirus infected sf21 cells to IC50 for human N-terminal GST-tagged EGFR T790M/L858R double mutant (696 to end residues) expressed in baculovirus infected sf21 cells.

The structures appear in SMILES notation. pIC50: −log10 of the molar value.

The source of these data is ChEMBL document CHEMBL4371069, “Click chemistry for improvement in selectivity of quinazoline-based kinase inhibitors for mutant epidermal growth factor receptors” (Bioorg Med Chem Lett, 2019).

Usually pIC50 stands for the IC50 on a negative log10 scale, so that one unit is a factor of ten. High values mean a small IC50, low ones a large IC50.

Receptor tyrosine-protein kinase erbB-2, sequence (P04626 whole entry): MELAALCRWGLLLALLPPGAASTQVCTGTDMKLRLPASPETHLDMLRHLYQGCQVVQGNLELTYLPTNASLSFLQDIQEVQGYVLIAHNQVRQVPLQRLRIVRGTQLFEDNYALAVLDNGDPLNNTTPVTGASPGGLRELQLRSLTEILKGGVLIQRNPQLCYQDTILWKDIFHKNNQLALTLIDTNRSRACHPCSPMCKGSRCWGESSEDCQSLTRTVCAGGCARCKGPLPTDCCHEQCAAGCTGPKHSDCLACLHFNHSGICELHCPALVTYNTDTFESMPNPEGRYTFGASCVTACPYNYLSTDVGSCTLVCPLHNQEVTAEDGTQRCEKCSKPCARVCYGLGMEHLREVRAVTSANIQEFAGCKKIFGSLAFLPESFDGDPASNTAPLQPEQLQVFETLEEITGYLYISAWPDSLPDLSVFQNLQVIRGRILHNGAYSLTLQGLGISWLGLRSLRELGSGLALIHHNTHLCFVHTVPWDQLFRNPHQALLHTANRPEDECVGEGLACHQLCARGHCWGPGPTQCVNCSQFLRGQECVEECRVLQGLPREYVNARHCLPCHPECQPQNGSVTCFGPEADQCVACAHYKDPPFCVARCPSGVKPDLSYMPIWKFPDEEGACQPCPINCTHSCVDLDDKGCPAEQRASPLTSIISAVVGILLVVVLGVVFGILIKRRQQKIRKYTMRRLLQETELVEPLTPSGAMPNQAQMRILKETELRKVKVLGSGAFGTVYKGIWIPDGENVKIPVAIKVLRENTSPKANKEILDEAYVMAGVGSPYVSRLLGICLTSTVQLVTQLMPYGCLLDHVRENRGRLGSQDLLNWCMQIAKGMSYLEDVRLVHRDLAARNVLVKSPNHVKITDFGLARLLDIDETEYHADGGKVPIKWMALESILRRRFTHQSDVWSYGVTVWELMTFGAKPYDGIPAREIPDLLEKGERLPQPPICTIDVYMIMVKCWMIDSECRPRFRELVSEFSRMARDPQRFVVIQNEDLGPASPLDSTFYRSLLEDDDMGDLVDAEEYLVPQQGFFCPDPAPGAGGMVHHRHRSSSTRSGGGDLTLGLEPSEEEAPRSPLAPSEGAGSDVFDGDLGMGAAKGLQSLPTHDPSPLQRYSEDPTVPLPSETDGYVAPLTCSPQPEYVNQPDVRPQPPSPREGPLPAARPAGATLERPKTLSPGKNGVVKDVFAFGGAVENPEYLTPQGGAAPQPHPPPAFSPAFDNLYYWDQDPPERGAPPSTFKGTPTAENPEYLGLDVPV

`C=CC(=O)Nc1cc2c(Nc3ccc(F)c(Cl)c3)ncnc2cc1OCc1cn(Cc2ccc(Cl)cc2)nn1`: the pIC50 in series [1] was 6.65; in series [3], 6.52. The activity at 0.25 h, 10 µM in series [2] came to 48.7%; in series [4], 77.6%.
For `C=CC(=O)Nc1cc2c(Nc3ccc(F)c(Cl)c3)ncnc2cc1OCc1cn(Cc2cccc(F)c2)nn1`, the “Ratio IC50” value in series [5] is 6.7; in series [6], 3.5; in series [7], 52; in series [8], 17. The pIC50 in series [1] was 6.68; in series [3], 6.30. Moreover, the activity at 0.25 h, 10 µM was 35.6% in series [2] and 50.1% in series [4].
Take `C=CC(=O)Nc1cc2c(Nc3ccc(F)c(Cl)c3)ncnc2cc1OCc1cn(Cc2ccc(F)cc2)nn1`: the results for the pIC50 in series [1] and in series [3] were 6.67 and 6.34, respectively. The figures for the activity at 0.25 h, 10 µM in series [2] and in series [4] were 36.4% and 55.3%, respectively.
